Structures can show the parent of a compound that is named as a salt.
Key:
[1] = molecular target: mouse PKA catalytic subunits (Mus musculus, UniProt P05132); assay: PKA inhibition, ADP-Glo Kinase Assay
bovine GRK5 = bovine GRK5 (Bos taurus, UniProt P43249); assay: GRK5 kinase inhibition
bovine GRK2 (S670A) = molecular target: T1, bovine GRK2 (S670A) (Bos taurus, UniProt P21146, S670A); assay: GRK2 kinase inhibition
T1 sequence (P21146 1-689 S670A): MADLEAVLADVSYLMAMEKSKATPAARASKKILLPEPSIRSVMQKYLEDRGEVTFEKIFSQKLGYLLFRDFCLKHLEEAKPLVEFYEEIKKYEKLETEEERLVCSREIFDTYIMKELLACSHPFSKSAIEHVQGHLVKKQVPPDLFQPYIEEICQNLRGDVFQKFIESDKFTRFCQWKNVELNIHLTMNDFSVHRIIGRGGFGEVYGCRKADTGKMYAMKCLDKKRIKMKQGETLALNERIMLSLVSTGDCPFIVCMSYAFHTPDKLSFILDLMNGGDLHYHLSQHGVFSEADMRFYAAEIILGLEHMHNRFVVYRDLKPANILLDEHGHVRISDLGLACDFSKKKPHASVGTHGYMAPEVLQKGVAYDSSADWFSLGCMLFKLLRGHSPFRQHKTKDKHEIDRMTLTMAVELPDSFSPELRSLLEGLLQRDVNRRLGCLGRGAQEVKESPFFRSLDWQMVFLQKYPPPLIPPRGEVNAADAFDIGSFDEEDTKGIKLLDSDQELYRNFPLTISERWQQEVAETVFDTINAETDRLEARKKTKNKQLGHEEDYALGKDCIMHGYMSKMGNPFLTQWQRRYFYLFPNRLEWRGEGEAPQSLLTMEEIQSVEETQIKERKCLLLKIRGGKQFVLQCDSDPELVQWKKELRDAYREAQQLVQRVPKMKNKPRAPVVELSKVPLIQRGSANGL

[2] = Metabolic stability in mouse liver microsomes; assay type: in vitro ADME; details: polar carboxamides on the paroxetine template
[3] = Abbreviated pharmacokinetic study in mice after IP administration
mouse cardiomyocytes = assay type: cell-based
[4] = female, CD-1, mouse, plasma, ip, 10 mg/kg

bovine GRK5, sequence (P43249 whole entry): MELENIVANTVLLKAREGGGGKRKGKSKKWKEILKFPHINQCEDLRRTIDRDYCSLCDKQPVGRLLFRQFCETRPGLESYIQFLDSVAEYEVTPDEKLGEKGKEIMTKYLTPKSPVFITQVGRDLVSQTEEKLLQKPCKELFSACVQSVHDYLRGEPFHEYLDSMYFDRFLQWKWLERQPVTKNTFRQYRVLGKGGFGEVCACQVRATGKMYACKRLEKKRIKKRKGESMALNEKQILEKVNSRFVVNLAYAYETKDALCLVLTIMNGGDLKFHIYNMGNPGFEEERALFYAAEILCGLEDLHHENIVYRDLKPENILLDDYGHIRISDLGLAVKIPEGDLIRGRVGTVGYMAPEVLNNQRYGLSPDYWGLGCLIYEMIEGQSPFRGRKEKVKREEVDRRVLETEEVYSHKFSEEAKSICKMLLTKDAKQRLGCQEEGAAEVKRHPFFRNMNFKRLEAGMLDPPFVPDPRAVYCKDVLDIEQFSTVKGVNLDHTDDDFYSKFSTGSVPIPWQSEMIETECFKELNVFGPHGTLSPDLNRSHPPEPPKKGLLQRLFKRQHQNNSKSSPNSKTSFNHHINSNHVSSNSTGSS

For Cc1cc(CNC(=O)c2cc([C@@H]3CCNC[C@H]3COc3ccc4c(c3)OCO4)ccc2F)n[nH]1 [14au, 5-((3S,4R)-3-((benzo[d][1,3]dioxol-5-yloxy)methyl)piperidin-4-yl)-2-fluoro-N-((5-methyl-1H-pyrazol-3-yl)methyl)benzamide], the IC50 [1] was > 100 µM and the “selectivity for GRK2 over GRK5” value (bovine GRK5) was > 100 fold.

With Cn1ccc(CNC(=O)c2cc([C@@H]3CCNC[C@H]3COc3ccc4c(c3)OCO4)ccc2F)n1 [14av, 5-((3S,4R)-3-((benzo[d][1,3]dioxol-5-yloxy)methyl)piperidin-4-yl)-2-fluoro-N-((1-methyl-1H-pyrazol-3-yl)methyl)benzamide] the IC50 [1] was > 100 µM and the “decrease in GRK2 potency relative to 14as” value (bovine GRK2 (S670A)) was 40 fold.

In the case of O=C(NCc1ccccc1C(F)(F)F)c1cc([C@@H]2CCNC[C@H]2COc2ccc3c(c2)OCO3)ccc1F [14af, 5-((3S,4R)-3-((benzo[d][1,3]dioxol-5-yloxy)methyl)piperidin-4-yl)-2-fluoro-N-(2-(trifluoromethyl)benzyl)benzamide], the IC50 [1] is reported as > 100 µM.

In the case of Cc1cccc(C)c1CNC(=O)c1cc([C@@H]2CCNC[C@H]2COc2ccc3c(c2)OCO3)ccc1F [14ag, 5-((3S,4R)-3-((benzo[d][1,3]dioxol-5-yloxy)methyl)piperidin-4-yl)-N-(2,6-dimethylbenzyl)-2-fluorobenzamide hydrochloride], the IC50 [1] is reported as > 100 µM.

For O=C(Cc1cc([C@@H]2CCNC[C@H]2COc2ccc3c(c2)OCO3)ccc1F)NCCc1cn[nH]c1 [14bd, N-(2-(1H-pyrazol-4-yl)ethyl)-2-(5-((3S,4R)-3-((benzo[d][1,3]dioxol-5-yloxy)methyl)piperidin-4-yl)-2-fluorophenyl)acetamide], the IC50 [1] was > 100 µM and the “increase in GRK2 potency relative to paroxetine” value (bovine GRK2 (S670A)) was 2 fold.

With O=C(NCc1ccncc1)c1cc([C@@H]2CCNC[C@H]2COc2ccc3c(c2)OCO3)ccc1F [14am, 5-((3S,4R)-3-((benzo[d][1,3]dioxol-5-yloxy)methyl)piperidin-4-yl)-2-fluoro-N-(pyridin-4-ylmethyl)benzamide] the IC50 [1] was > 100 µM.

For COc1cccc(OC)c1CNC(=O)c1cc([C@@H]2CCNC[C@H]2COc2ccc3c(c2)OCO3)ccc1F [14ai, 5-((3S,4R)-3-((benzo[d][1,3]dioxol-5-yloxy)methyl)piperidin-4-yl)-N-(2,6-dimethoxybenzyl)-2-fluorobenzamide hydrochloride], the IC50 [1] was > 100 µM.

For O=C(NCCc1cn[nH]c1)c1cc([C@@H]2CCNC[C@H]2COc2ccc3c(c2)OCO3)ccc1F [14ay, N-(2-(1H-pyrazol-4-yl)ethyl)-5-((3S,4R)-3-((benzo[d][1,3]dioxol-5-yloxy)methyl)piperidin-4-yl)-2-fluorobenzamide hydrochloride], the IC50 [1] was > 100 µM.

With O=C(NCCc1cccnc1)c1cc([C@@H]2CCNC[C@H]2COc2ccc3c(c2)OCO3)ccc1F [14ao, 5-((3S,4R)-3-((benzo[d][1,3]dioxol-5-yloxy)methyl)piperidin-4-yl)-2-fluoro-N-(2-(pyridin-3-yl)ethyl)benzamide] the IC50 [1] was > 100 µM.

For O=C(NCCc1ccccc1)c1cc([C@@H]2CCNC[C@H]2COc2ccc3c(c2)OCO3)ccc1F [14ac, 5-((3S,4R)-3-((benzo[d][1,3]dioxol-5-yloxy)methyl)piperidin-4-yl)-2-fluoro-N-phenethylbenzamide], the IC50 [1] was > 100 µM.

For O=C(NCc1c(F)cccc1F)c1cc([C@@H]2CCNC[C@H]2COc2ccc3c(c2)OCO3)ccc1F [14ad, 5-((3S,4R)-3-((benzo[d][1,3]dioxol-5-yloxy)methyl)piperidin-4-yl)-N-(2,6-difluorobenzyl)-2-fluorobenzamide hydrochloride], the IC50 [1] was > 100 µM.

With O=C(NCc1c(Cl)cccc1Cl)c1cc([C@@H]2CCNC[C@H]2COc2ccc3c(c2)OCO3)ccc1F [14ah, 5-((3S,4R)-3-((benzo[d][1,3]dioxol-5-yloxy)methyl)piperidin-4-yl)-N-(2,6-dichlorobenzyl)-2-fluorobenzamide] the IC50 [1] was > 100 µM.

In the case of O=C(NCCc1ccncc1)c1cc([C@@H]2CCNC[C@H]2COc2ccc3c(c2)OCO3)ccc1F [14ap, 5-((3S,4R)-3-((benzo[d][1,3]dioxol-5-yloxy)methyl)piperidin-4-yl)-2-fluoro-N-(2-(pyridin-4-yl)ethyl)benzamide], the IC50 [1] is reported as > 100 µM.

With CNC(=O)c1cc([C@@H]2CCNC[C@H]2COc2ccc3c(c2)OCO3)ccc1F [14aa, 5-((3S,4R)-3-((benzo[d][1,3]dioxol-5-yloxy)methyl)piperidin-4-yl)-2-fluoro-N-methylbenzamide] the IC50 [1] was > 100 µM.

In the case of O=C(NCc1cn[nH]c1)c1cc([C@@H]2CCNC[C@H]2COc2ccc3c(c2)OCO3)ccc1F [14ax, N-((1H-pyrazol-4-yl)methyl)-5-((3S,4R)-3-((benzo[d][1,3]dioxol-5-yloxy)methyl)piperidin-4-yl)-2-fluorobenzamide], the IC50 [1] is reported as > 100 µM and the “decrease in GRK2 potency relative to 14as” value (bovine GRK2 (S670A)) is reported as 10 fold.

With O=C(Cc1cc([C@@H]2CCNC[C@H]2COc2ccc3c(c2)OCO3)ccc1F)NCCc1ccccn1 [14bc, 2-(5-((3S,4R)-3-((benzo[d][1,3]dioxol-5-yloxy)methyl)piperidin-4-yl)-2-fluorophenyl)-N-(2-(pyridin-2-yl)ethyl)acetamide hydrochloride] the IC50 [1] was > 100 µM.

For O=C(NCCc1c[nH]cn1)c1cc([C@@H]2CCNC[C@H]2COc2ccc3c(c2)OCO3)ccc1F [14ar, N-(2-(1H-imidazol-4-yl)ethyl)-5-((3S,4R)-3-((benzo[d][1,3]dioxol-5-yloxy)methyl)piperidin-4-yl)-2-fluorobenzamide], the IC50 [1] was > 100 µM.

For O=C(NCc1ccccc1)c1cc([C@@H]2CCNC[C@H]2COc2ccc3c(c2)OCO3)ccc1F [14ab, 5-((3S,4R)-3-((benzo[d][1,3]dioxol-5-yloxy)methyl)piperidin-4-yl)-N-benzyl-2-fluorobenzamide], the IC50 [1] was > 100 µM.

With O=C(NCc1ncc[nH]1)c1cc([C@@H]2CCNC[C@H]2COc2ccc3c(c2)OCO3)ccc1F [14aq, N-((1H-imidazol-2-yl)methyl)-5-((3S,4R)-3-((benzo[d][1,3]dioxol-5-yloxy)methyl)piperidin-4-yl)-2-fluorobenzamide] the IC50 [1] was > 100 µM.

For O=C(NCc1cccnc1)c1cc([C@@H]2CCNC[C@H]2COc2ccc3c(c2)OCO3)ccc1F [14al, 5-((3S,4R)-3-((benzo[d][1,3]dioxol-5-yloxy)methyl)piperidin-4-yl)-2-fluoro-N-(pyridin-3-ylmethyl)benzamide], the IC50 [1] was > 100 µM.

With Fc1ccc([C@@H]2CCNC[C@H]2COc2ccc3c(c2)OCO3)cc1 [Paroxetine, paroxetine, reference compound] the IC50 [1] was > 100 µM.

With O=C(NCCc1c(F)cccc1F)c1cc([C@@H]2CCNC[C@H]2COc2ccc3c(c2)OCO3)ccc1F [14ae, 5-((3S,4R)-3-((benzo[d][1,3]dioxol-5-yloxy)methyl)piperidin-4-yl)-N-(2,6-difluorophenethyl)-2-fluorobenzamide] the IC50 [1] was > 100 µM.

For O=C(NCc1ccn[nH]1)c1cc([C@@H]2CCNC[C@H]2COc2ccc3c(c2)OCO3)ccc1F [14as, N-((1H-pyrazol-5-yl)methyl)-5-((3S,4R)-3-((benzo[d][1,3]dioxol-5-yloxy)methyl)piperidin-4-yl)-2-fluorobenzamide], the IC50 [1] was > 100 µM, the “metabolic stability in MLM, in words” value [2] was “substantial metabolic instability” and the concentration at 30 min [3, 4] was 2710 nM. The concentration at 2 h [3, 4] was 1440 nM, the concentration at 4 h [3, 4] was 270 nM and the concentration at 7 h [3, 4] was 43 nM. The “time with plasma concentration higher than GRK2 IC50 ([…] nM)” value ([3]; mice, single IP administration 10 mg/kg) was “over seven”, the “improvement in contractility efficacy over compound 4” value (mouse cardiomyocytes) was 5 fold and the “concentration giving improved contractility” value (mouse cardiomyocytes; isoproterenol-stimulated) was 100 nM.

In the case of O=C(NCCc1ccccn1)c1cc([C@@H]2CCNC[C@H]2COc2ccc3c(c2)OCO3)ccc1F [14an, 5-((3S,4R)-3-((benzo[d][1,3]dioxol-5-yloxy)methyl)piperidin-4-yl)-2-fluoro-N-(2-(pyridin-2-yl)ethyl)benzamide], the IC50 [1] is reported as > 100 µM.

With COc1ccccc1CNC(=O)c1cc([C@@H]2CCNC[C@H]2COc2ccc3c(c2)OCO3)ccc1F [14aj, 5-((3S,4R)-3-((benzo[d][1,3]dioxol-5-yloxy)methyl)piperidin-4-yl)-2-fluoro-N-(2-methoxybenzyl)benzamide hydrochloride] the IC50 [1] was > 100 µM.

For O=C(NCCc1cc[nH]n1)c1cc([C@@H]2CCNC[C@H]2COc2ccc3c(c2)OCO3)ccc1F [14at, N-(2-(1H-pyrazol-3-yl)ethyl)-5-((3S,4R)-3-((benzo[d][1,3]dioxol-5-yloxy)methyl)piperidin-4-yl)-2-fluorobenzamide], the IC50 [1] was > 100 µM and the “decrease in GRK2 potency relative to 14as” value (bovine GRK2 (S670A)) was 26 fold.

For Cn1nccc1CNC(=O)c1cc([C@@H]2CCNC[C@H]2COc2ccc3c(c2)OCO3)ccc1F [14aw, 5-((3S,4R)-3-((benzo[d][1,3]dioxol-5-yloxy)methyl)piperidin-4-yl)-2-fluoro-N-((1-methyl-1H-pyrazol-5-yl)methyl)benzamide], the IC50 [1] was > 100 µM and the “decrease in GRK2 potency relative to 14as” value (bovine GRK2 (S670A)) was 70 fold.

Source: article PMC5641445 (Journal of medicinal chemistry, 2017)
